According to ChEMBL document CHEMBL1137777, “Design, synthesis, and evaluation of indolinones as triple angiokinase inhibitors and the discovery of a highly specific 6-methoxycarbonyl-substituted indolinone (BIBF 1120)” (J Med Chem, 2009):
Each block holds one molecule with its values, some of them ahead of it.

Tests used:
HUVEC = assay: cells; conditions: Homo sapiens, 3 h
Description: Antiangiogenic activity in HUVEC assessed as inhibition of VEGF-induced cell proliferation by [3H]thymidine incorporation assay

[1] = biological target: Vascular endothelial growth factor receptor 2 (Homo sapiens, UniProt P35968); assay: Inhibition of human VEGFR2 expressed in Sf9 cells
HeLa = assay: Antiangiogenic activity against human HeLa cells assessed as inhibition of cell proliferation by [3H]thymidine incorporation assay; format: functional, cell-based
Calu-6 [2] = assay: Antiangiogenic activity against human Calu6 cells assessed as inhibition of cell proliferation by [3H]thymidine incorporation assay; format: functional, cell-based
Calu-6 [3] = assay: Antitumor activity against human Calu6 cells xenografted NMRI nu/nu mouse assessed as inhibition of mean tumor volume growth at 50 mg/kg, po qd after 21 days relative to control; format: functional
SK-OV-3 = assay: Antitumor activity against human SKOV3 cells xenografted NMRI nu/nu mouse assessed as inhibition of mean tumor volume growth at 50 mg/kg, po qd after 21 days relative to control; format: functional
Mus musculus = assay: AUC in NMRI nu/nu mouse at 50 mg/kg, po administered as single dose; format: ADME, organism-based, Plasma; design: dose 50 mg/kg, route oral; conditions: in vivo
CAKI-1 [4] = assay: Antitumor activity against human Caki1 cells xenografted NMRI nu/nu mouse assessed as inhibition of mean tumor volume growth at 50 mg/kg, po qd after 21 days relative to control; format: functional
FaDu [5] = assay: Antiangiogenic activity against human FADU cells assessed as inhibition of cell proliferation by [3H]thymidine incorporation assay; format: functional, cell-based
FaDu [6] = assay: Antitumor activity against human FADU cells xenografted NMRI nu/nu mouse assessed as inhibition of mean tumor volume growth at 50 mg/kg, po qd after 21 days relative to control; format: functional
[7] = Oral bioavailability in NMRI nu/nu mouse at 50 mg/kg administered as single dose; format: ADME, organism-based; conditions: in vivo
[8] = Clearance in NMRI nu/nu mouse at 50 mg/kg, po or 10 mg/kg, iv administered as single dose; format: ADME, organism-based; conditions: in vivo
[9] = Volume of distribution in NMRI nu/nu mouse at 50 mg/kg, po or 10 mg/kg, iv administered as single dose; format: ADME, organism-based; conditions: in vivo
[10] = Plasma concentration in NMRI nu/nu mouse at 50 mg/kg, po administered as single dose after 24 hrs; format: ADME, organism-based; design: dose 50 mg/kg, route oral
[11] = Half life in NMRI nu/nu mouse at 50 mg/kg, po administered as single dose; format: ADME, organism-based; design: dose 50 mg/kg, route oral; conditions: in vivo
FaDu [12] = assay: Antitumor activity against human FADU cells xenografted NMRI nu/nu mouse assessed as inhibition of mean tumor volume growth at 10 mg/kg, po qd after 21 days relative to control; format: functional
[13] = Antitumor activity against human PAC120 cells xenografted NMRI nu/nu mouse assessed as inhibition of mean tumor volume growth at 100 mg/kg, po qd after 21 days relative to control; format: functional
FaDu [14] = assay: Antitumor activity against human FADU cells xenografted NMRI nu/nu mouse assessed as inhibition of mean tumor volume growth at 25 mg/kg, po qd after 21 days relative to control; format: functional
FaDu [15] = assay: Antitumor activity against human FADU cells xenografted NMRI nu/nu mouse assessed as inhibition of mean tumor volume growth at 100 mg/kg, po qd after 21 days relative to control; format: functional
[16] = biological target: Serine/threonine-protein kinase PLK1 (Homo sapiens, UniProt P53350); assay: Inhibition of human Plk1
FaDu [17] = assay: Antitumor activity against human FADU cells xenografted NMRI nu/nu mouse assessed as inhibition of mean tumor volume growth at 50 mg/kg, po bid after 21 days relative to control; format: functional
CAKI-1 [18] = assay: Antitumor activity against human Caki1 cells xenografted NMRI nu/nu mouse assessed as inhibition of mean tumor volume growth at 100 mg/kg, po qd after 21 days relative to control; format: functional
CAKI-1 [19] = assay: Antitumor activity against human Caki1 cells xenografted NMRI nu/nu mouse assessed as inhibition of mean tumor volume growth at 10 mg/kg, po qd after 21 days relative to control; format: functional
[20] = Plasma concentration in NMRI nu/nu mouse at 50 mg/kg, po administered as single dose after 2 hrs; format: ADME, organism-based; design: dose 50 mg/kg, route oral
HT-29 = assay: Antitumor activity against human HT-29 cells xenografted NMRI nu/nu mouse assessed as inhibition of mean tumor volume growth at 100 mg/kg, po qd after 21 days relative to control; format: functional
[21] = Cmax in NMRI nu/nu mouse at 50 mg/kg, po administered as single dose; format: ADME, organism-based; design: dose 50 mg/kg, route oral; conditions: in vivo

Chain of Vascular endothelial growth factor receptor 2 (P35968 whole entry): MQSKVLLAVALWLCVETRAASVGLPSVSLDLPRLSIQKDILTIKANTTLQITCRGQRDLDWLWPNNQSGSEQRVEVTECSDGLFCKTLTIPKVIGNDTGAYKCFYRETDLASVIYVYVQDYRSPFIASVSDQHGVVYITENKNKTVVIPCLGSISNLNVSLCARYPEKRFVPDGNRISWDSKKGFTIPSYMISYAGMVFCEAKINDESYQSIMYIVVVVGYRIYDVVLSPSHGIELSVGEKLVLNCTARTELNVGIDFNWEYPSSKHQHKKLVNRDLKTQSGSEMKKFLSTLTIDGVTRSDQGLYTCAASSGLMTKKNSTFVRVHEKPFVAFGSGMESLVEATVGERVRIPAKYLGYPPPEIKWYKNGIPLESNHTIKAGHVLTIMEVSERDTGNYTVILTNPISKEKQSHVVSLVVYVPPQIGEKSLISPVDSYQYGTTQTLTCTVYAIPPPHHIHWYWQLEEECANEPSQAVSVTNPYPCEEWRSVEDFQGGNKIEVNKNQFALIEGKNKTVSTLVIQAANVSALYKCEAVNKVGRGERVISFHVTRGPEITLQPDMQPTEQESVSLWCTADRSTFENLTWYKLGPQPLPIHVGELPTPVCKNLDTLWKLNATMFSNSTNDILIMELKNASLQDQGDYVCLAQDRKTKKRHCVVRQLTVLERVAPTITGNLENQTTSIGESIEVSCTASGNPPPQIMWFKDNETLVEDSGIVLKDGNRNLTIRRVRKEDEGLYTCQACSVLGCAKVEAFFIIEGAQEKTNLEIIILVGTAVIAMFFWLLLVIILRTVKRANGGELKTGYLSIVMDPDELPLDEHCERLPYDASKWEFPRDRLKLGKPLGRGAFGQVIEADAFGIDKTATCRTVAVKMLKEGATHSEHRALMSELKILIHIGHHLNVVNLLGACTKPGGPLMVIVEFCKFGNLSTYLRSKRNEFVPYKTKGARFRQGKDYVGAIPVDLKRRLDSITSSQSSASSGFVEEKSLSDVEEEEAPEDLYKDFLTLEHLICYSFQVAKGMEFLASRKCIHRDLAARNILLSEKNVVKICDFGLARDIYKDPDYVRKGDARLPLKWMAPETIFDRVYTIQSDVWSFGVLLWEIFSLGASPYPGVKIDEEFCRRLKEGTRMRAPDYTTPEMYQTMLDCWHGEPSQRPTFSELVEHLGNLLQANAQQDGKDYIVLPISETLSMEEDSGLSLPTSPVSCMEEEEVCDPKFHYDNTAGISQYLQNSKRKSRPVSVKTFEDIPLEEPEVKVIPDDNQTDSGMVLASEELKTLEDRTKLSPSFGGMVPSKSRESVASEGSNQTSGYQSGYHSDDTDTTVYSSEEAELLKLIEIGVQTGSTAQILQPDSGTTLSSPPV
Chain of Serine/threonine-protein kinase PLK1 (P53350 whole entry): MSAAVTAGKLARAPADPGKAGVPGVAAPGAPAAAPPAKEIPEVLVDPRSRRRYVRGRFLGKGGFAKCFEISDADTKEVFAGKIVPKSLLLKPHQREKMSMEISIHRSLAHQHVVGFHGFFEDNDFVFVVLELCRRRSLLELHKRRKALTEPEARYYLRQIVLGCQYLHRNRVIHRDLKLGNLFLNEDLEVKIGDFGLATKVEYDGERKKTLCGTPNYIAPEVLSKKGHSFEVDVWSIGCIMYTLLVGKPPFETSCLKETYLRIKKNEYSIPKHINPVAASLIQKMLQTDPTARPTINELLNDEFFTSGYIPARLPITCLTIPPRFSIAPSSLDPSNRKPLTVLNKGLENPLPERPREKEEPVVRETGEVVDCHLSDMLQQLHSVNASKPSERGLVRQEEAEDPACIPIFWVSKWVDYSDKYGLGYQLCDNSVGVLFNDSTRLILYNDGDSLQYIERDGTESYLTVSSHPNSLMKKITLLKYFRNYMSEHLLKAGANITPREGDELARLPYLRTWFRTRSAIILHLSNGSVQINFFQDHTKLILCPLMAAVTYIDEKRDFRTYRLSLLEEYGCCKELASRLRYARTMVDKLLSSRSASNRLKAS

SMILES: COC(=O)c1ccc2c(c1)NC(=O)/C2=C(\Nc1ccc(N(C)C(=O)Cn2ccnc2)cc1)c1ccccc1
EC50 (HUVEC): 0.052 µM | IC50 [1]: 0.006 µM

SMILES: CCN(C)C(=O)c1ccc2c(c1)NC(=O)/C2=C(\Nc1ccc(CN2CCCCC2)cc1)c1ccccc1
EC50 (HUVEC): 0.718 µM | IC50 [1]: 1.45 µM

SMILES: O=C1Nc2ccccc2/C1=C(/Nc1ccc(CN2CCCCC2)cc1)c1ccccc1
IC50 [1]: 2.11 µM

SMILES: O=C1Nc2cc(C(=O)O)ccc2/C1=C(/Nc1ccc(CN2CCCCC2)cc1)c1ccccc1
IC50 [1]: > 1 µM

SMILES: O=C1Nc2cc(Cl)ccc2/C1=C(/Nc1ccc(CN2CCCCC2)cc1)c1ccccc1
EC50 (HUVEC): 0.049 µM | IC50 [1]: 0.129 µM

SMILES: CN(C)C(=O)c1ccc2c(c1)NC(=O)/C2=C(\Nc1ccc(CN2CCCCC2)cc1)c1ccccc1
EC50 (HUVEC): 0.542 µM | IC50 [1]: 1.31 µM

SMILES: O=C1Nc2cc([N+](=O)[O-])ccc2/C1=C(/Nc1ccc(CN2CCCCC2)cc1)c1ccccc1
EC50 (HUVEC): 0.06 µM | EC50 (HeLa): > 1 µM | IC50 [1]: 0.007 µM

SMILES: COC(=O)c1ccc2c(c1)NC(=O)/C2=C(\Nc1ccc(CN2CCCC2=O)cc1)c1ccccc1
IC50 [1]: 0.245 µM

SMILES: COC(=O)c1ccc2c(c1)NC(=O)/C2=C(\Nc1ccc(N(CCN(C)C)S(C)(=O)=O)cc1)c1ccccc1
EC50 (HUVEC): 0.014 µM | IC50 [1]: 0.023 µM

SMILES: CC(=O)c1ccc2c(c1)NC(=O)/C2=C(\Nc1ccc(CN2CCCCC2)cc1)c1ccccc1
IC50 [1]: 1.75 µM

The next lines start with results.

IC50 [1]: 0.008 µM
SMILES: COC(=O)c1ccc2c(c1)NC(=O)/C2=C(\Nc1ccc(N(CC(=O)N(C)C)C(C)=O)cc1)c1ccccc1
EC50 (HUVEC): 0.037 µM

IC50 [1]: > 10 µM
SMILES: COC(=O)c1ccc2c(c1)NC(=O)/C2=C(\NC1CCC(NC(=O)CN(C)C)CC1)c1ccccc1 (centres undefined)

IC50 [1]: > 10 µM
SMILES: COC(=O)c1ccc2c(c1)NC(=O)/C2=C(\NC1CCN(C)CC1)c1ccccc1

EC50 (Calu-6 [2]): > 1 µM | AUC (Mus musculus): 2.75 µM·h | bioavailability [7]: 45% | clearance [8]: 173 mL/min/kg | Vd [9]: 32 L/kg | concentration at 24 h [10]: 8 nM | half-life [11]: 5 h | EC50 (HeLa): > 1 µM | IC50 [16]: > 10 µM | concentration at 2 h [20]: 923 nM | Cmax [21]: 1090 nM
SMILES: COC(=O)c1ccc2c(c1)NC(=O)/C2=C(\Nc1ccc(N(C)C(=O)CN2CCN(C)CC2)cc1)c1ccccc1 [NINTEDANIB]
IC50 (HUVEC): 0.01 µM | T/C (Calu-6 [3]): 24% | T/C (SK-OV-3): 19% | T/C (CAKI-1 [4]): 25% | EC50 (FaDu [5]): > 1 µM | T/C (FaDu [6]): 14% | T/C (FaDu [12]): 82% | T/C [13]: 34% | T/C (FaDu [14]): 46% | T/C (FaDu [15]): 11% | T/C (FaDu [17]): 15% | T/C (CAKI-1 [18]): 16% | T/C (CAKI-1 [19]): 71% | T/C (HT-29): 16%

IC50 [1]: 0.024 µM
SMILES: COC(=O)c1ccc2c(c1)NC(=O)/C2=C(\Nc1ccc(C(=O)N(C)CCN(C)C)cc1)c1ccccc1
EC50 (HUVEC): 0.025 µM

IC50 [1]: 0.15 µM
SMILES: COC(=O)c1ccc2c(c1)NC(=O)/C2=C(\Nc1ccc(N(C)S(C)(=O)=O)cc1)c1ccccc1
